Values quoted from earlier work in US20050233013A1, “Methods for enhancing the transport of glucose for balancing blood sugar levels” (priority 2004, published 2005).

Test system: pancreatic beta cell
Details: micromolar concentrations; glucose dependent; Sauvaire et al, Diabetes 47:206 (1998)

C[C@@H]([C@H](C)O)[C@H](N)C(=O)O [major isomer (2S, 3R, 4S), (2S, 3R, 4S)-4-hydroxyisoleucine]
glucose-induced insulin secretion: stimulate glucose-induced insulin secretion
